Data as given in patent US20220047507A1, “MELFLUFEN DOSAGE REGIMENS FOR CANCER” (ONCOPEPTIDES AB, priority 2015, published 2022).

Experiment: clinical
Settings: human, in vivo, iv; for AUC(0-t): AUC0-4; for AUC(0-inf): AUCinf

For `CCOC(=O)[C@H](Cc1ccc(F)cc1)NC(=O)[C@@H](N)Cc1ccc(N(CCCl)CCCl)cc1.Cl` [melflufen, L-Melphalanyl-4-fluoro-L-phenylalanine ethyl ester], the AUC(0-t) (15 mg) was 13.5 ng·h/mL, the AUC(0-inf) (15 mg) was 16.3 ng·h/mL and the Cmax (15 mg) was 39 ng/mL. The half-life (15 mg, T1/2) was 13 min, the tmax (15 mg) was 15 min and the AUC(0-t) (25 mg) was 40.8 ng·h/mL. For the same compound, the AUC(0-inf) (25 mg) was 40.8 ng·h/mL, the Cmax (25 mg) was 102 ng/mL and the half-life (25 mg, T1/2) was 4.6 min. It also gave a tmax (25 mg) of 12 min, an AUC(0-t) (40 mg) of 89.3 ng·h/mL and an AUC(0-inf) (40 mg) of 89.3 ng·h/mL. The Cmax (40 mg) was 222 ng/mL, the half-life (40 mg, T1/2) was 1.1 min and the tmax (40 mg) was 15 min. For the same compound, the AUC(0-t) (55 mg) was 102 ng·h/mL, the AUC(0-inf) (55 mg) was 102 ng·h/mL and the Cmax (55 mg) was 245 ng/mL. It also gave a half-life (55 mg, T1/2) of 2.7 min, a tmax (55 mg) of 25 min and a half-life (half-life of melflufen concentrations after end of infusion) of 3 to 5 min.
